Test results taken from publication PMC5807903, “Combination of Virtual Screening Protocol by in Silico toward the Discovery of Novel 4-Hydroxyphenylpyruvate Dioxygenase Inhibitors” (Frontiers in Chemistry, 2018).
Where two headings read alike, the source gives them in different places.

Target: T1, AtHPPD (Arabidopsis thaliana, UniProt P93836)
T1 construct: gene HPD; recombinant enzyme supplied by Guangfu Yang research team; Fe(II) enzyme; PDB 1TFZ used for docking only
T1 sequence (P93836 1-445): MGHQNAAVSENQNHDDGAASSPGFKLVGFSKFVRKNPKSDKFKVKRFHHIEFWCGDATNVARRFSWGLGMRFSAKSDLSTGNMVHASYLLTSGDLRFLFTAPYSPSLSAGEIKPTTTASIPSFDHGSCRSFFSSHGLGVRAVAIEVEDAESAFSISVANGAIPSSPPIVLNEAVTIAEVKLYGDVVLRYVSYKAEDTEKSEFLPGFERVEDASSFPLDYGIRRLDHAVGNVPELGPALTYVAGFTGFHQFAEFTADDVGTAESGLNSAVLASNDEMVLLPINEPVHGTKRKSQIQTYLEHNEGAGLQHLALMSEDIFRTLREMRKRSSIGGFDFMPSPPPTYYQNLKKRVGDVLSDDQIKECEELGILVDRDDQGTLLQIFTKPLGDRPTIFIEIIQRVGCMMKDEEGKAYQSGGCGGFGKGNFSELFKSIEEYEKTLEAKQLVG
Experiment: HGD-coupled assay, maleylacetoacetate at […] nm
Type: biochemical

| IC50 (read-out: IC50) | SMILES | IC50 |
| --- | --- | --- |
|  | CS(=O)(=O)c1ccc(C(=O)C2C(=O)CCCC2=O)c([N+](=O)[O-])c1 [Control 1, mesotrione] | 204 nM |
| 2490 nM | Cc1cc(O)c(C(=O)/C=C/c2ccccc2)c(=O)o1 [compound 3881, 3-cinnamoyl-4-hydroxy-6-methyl-2H-pyran-2-one] |  |
